# Data as given in US5681695A, “Method for increasing specificity in competitive immunoassays” (priority 1994, dated 1997).
# Columns and labels:
# anti-HBc [1] = assay: CORAB radioimmunoassay for anti-HBc (competitive), with reducing agent added to the sample; type: binding, human; details: for inhibition in the Corab assay: presence of metabisulfite
# Protocol: 0.1 ml samples in groups I and II were placed in duplicate reaction wells, along with negative and positive controls, and 10 ul of 0.3% 2-mercaptoethanol (2-ME) in H2 O was added to one each of the duplicates, while 10 ul H2 O was added to the other. 0.1 ml of ^125 I-labeled anti-HBc was added to all wells, followed by an HBcAg-coated 1/4 inch polystyrene bead to all wells. Trays were gently shaken and allowed to incubate overnight at room temperature. All beads were washed 3 times with distilled water and transferred to test tubes for counting for 1 minute in a gamma scintillation counter. The positivity or negativity of each was calculated, as was the degree (%) inhibition from negative control for each specimen both with and without reducing reagent according to the formula: [formula] By this calculation, a sample giving a value equal to or greater than 50% is judged as positive in the test. The effect of the addition of the reducing reagents to the specimens was evaluated by several criteria:
# Plasma samples designated 25, 31, 76, 91, 177 and 189 were tested with a commercially available anti-HBc kit (Corab®, Abbott Laboratories, North Chicago, Ill.) with and without addition of 10 ul of a reducing agent, 0.5M sodium metabisulfite. Also, as in Example 4, samples were tested with and without addition of 26.3 ul of a positive anti-HBc sample (Panel 5). […] Samples 31 and 91 are discrepant samples which are confirmed as negative upon addition of the reducing agent.
# anti-HBc [2] = assay: Microparticle chemiluminescence immunoassay for anti-HBc, with cysteine; type: binding, human
# Protocol: Recombinant DNA hepatitis B core antigen (rHBcAg) was coupled to carboxylated polystyrene latex microparticles (Seragen Diagnostics, Indianapolis, Ind., 0.188 um) using a two-step procedure. First, purified polyclonal human anti-HBc at 2.7 ug/mg latex particles in the presence of normal human serum (1.0 ul/mg) was coupled using 1-ethyl-3-(3-dimethylaminopropyl) carbodiimide (EDAC, 43 ug/mg) in 0.015M MES buffer (2-[N-morpholino] ethanesulfonic acid), pH 4.8, for 2 hours at room temperature. Bangs, "Uniform Latex Particles", Seragen Diagnostics, 1984. The antibody undercoated particles were then washed three times in 0.1M Tris buffer, pH 7.2, containing 0.9% NaCl, 0.03% EDTA and 0.05% Tween-20 by centrifugation (40,000×g for 20 minutes) and resuspended in 0.1M Tris buffer, pH 7.2, containing 0.9% NaCl, 0.03% EDTA and 0.03% bovine serum albumin. rHBcAg (0.2 ug/mg) was then immunologically adsorbed on the undercoated particles by slow rotation overnight at room temperature. Particles were washed three times as before and dispersed through a 25 gauge needle and stored in 0.01M sodium phosphate, pH 7.2, containing 0.15M NaCl, 0.1% bovine serum albumin, 0.01% Tween-20 and 0.1% sodium azide (Microparticle Diluent). Percent solids was determined by light scattering at 500 nanometers. Coated particles were stored concentrated (typically 5-10% solids) and diluted in storage buffer to a working concentration (0.036%) before each assay. In an alternative method, rHBcAg was coupled directly to the microparticles by the EDAC method. The anti-HBc undercoating method is preferred.
# Acridinium-labeled purified anti-HBc (human) was prepared using an EDAC coupling procedure on the active ester. Briefly, 1 mg of B-alanine acridinium was dissolved in 100 ul anhydrous DMF and activated by sequential addition of 50 ul N-hydroxylsuccinimide (NHS) (5.75 mg/ml) and 50 ul EDAC (19.2 mg/ml) (molar ratio NHS:EDAC=1:2). The reaction proceeded in the dark at room temperature for 30 minutes. Protein A purified human anti-HBc was dialyzed (3×) against PBS, 0.5% CHAPS, pH 6.3, overnight at 2°-8° C. Activated acridinium was added to dialyzed antibody (30:1 molar excess) and the reaction mixture stirred for 30 minutes at room temperature. After dialysis versus the same buffer, the preparation was centrifuged and the supernatant chromatographed on a Beckman TSK 250 HPLC column equilibrated with the same buffer. Individual fractions (1 ml) were analyzed by UV spectroscopy at 369 and 280 nm to determine incorparation of acridinium (typically 3:1).
# 100 ul duplicates of samples including a sensitivity panel sample (1.23 Paul Erhlich Units/ml, Panel 7), two samples, S9 and S14, which were similar in anti-HBc reactivity to Group II samples described above, and negative and positive controls were added to a microtiter plate. […] 50 ul of the HBcAg-coated microparticles (0.036% solids) were added to all wells. This reaction mixture was incubated for 20 minutes in a 40° water bath.
# 166 ul of each reaction mixture was transferred to a microparticle capture/flow-through glass fiber filter funnel (Abbott Laboratories, North Chicago, Ill.) which was prewetted with 50 ul of 0.1% Tween-20. Each capture membrane was then washed twice with 50 ul of 0.1% Tween-20. 20 ul of the acridinium-labeled anti-HBc (375 ng/ml) was added to the surface of each capture membrane and incubated at room temperature for 20 minutes. The capture membranes were then washed twice with 100 ul and once with 50 ul of 0.1% Tween-20.
# The membranes were then transferred to a chemiluminescence reader where approximately 100 ul of a trigger solution comprising 0.3% H2 O2 in 0.25N NaOH was delivered to each membrane. The amount of light generated by the acridinium-labelled reagent bound to the microparticles was determined and is inversely proportional to the amount of anti-HBc present in the sample. […] There was a 10-20% signal loss in the negative control in the presence of cysteine. […]
# anti-HBc [3] = assay: Sephacryl S-300 fractions assayed for anti-HBc activity by microparticle assay, with cysteine; type: binding
# Protocol: Briefly, 2 ml of recalcified Sample 209 was applied to a Sephacryl S-300 column (2.5×50 cm) equilibrated with PBS. 2.5 ml fractions were collected at a flow rate of 20 ml/hr. Fractions were assayed using the microparticle assay of Example 3 except that an approximately 5 fold increase in sensitivity was implemented by using increasing incubation time and decreasing the amount of anti-HBc conjugate. […] The first inhibitory peak was not detected when assayed in the presence of cysteine. The second and major inhibitory peak, which co-eluted with the IgG protein peak, was unaffected by cysteine treatment. The immunoglobulin G associated anti-HBc activity is specific for non-acute hepatitis B infection.
# 3 ml of a borderline positive sample (Sample 9) was tested according to the procedure of Example 9. […] In the absence of reducing agent, a single inhibitory peak was seen near the void volume of the column. This peak was not detected when assayed in the presence of cysteine, and was clearly resolved form the IgG protein peak. This non-IgG reactivity is not believed to be a result of Hepatitis B infection and is therefore nonspecific.
smiles,measurement,setting,value
"O=S([O-])S(=O)(=O)[O-].[Na+].[Na+] [MBS, sodium metabisulfite]",<cpm>,"anti-HBc [1]; 10 ul 0.5M MBS, NC",20856 cpm
same,% I (percent inhibition),"anti-HBc [1]; 10 ul 0.5M MBS, NC spiked with Panel 5",73.6%
same,<cpm>,"anti-HBc [1]; 10 ul 0.5M MBS, PC",350 cpm
same,% I (percent inhibition),"anti-HBc [1]; 10 ul 0.5M MBS, Panel 7",71.0%
same,<Sx*> % I,"anti-HBc [1]; 10 ul 0.5M MBS, mean of samples spiked with Panel 5",74.8%
same,<Sx> % I,"anti-HBc [1]; 10 ul 0.5M MBS, mean of unspiked samples",11.4%
same,% I (percent inhibition),"anti-HBc [1]; 10 ul 0.5M MBS, sample OBI 25",7.6%
same,% I (percent inhibition),"anti-HBc [1]; 10 ul 0.5M MBS, sample OBI 25 spiked with Panel 5",74.3%
same,% I (percent inhibition),"anti-HBc [1]; 10 ul 0.5M MBS, sample OBI 31",10.4%
same,% I (percent inhibition),"anti-HBc [1]; 10 ul 0.5M MBS, sample OBI 31 spiked with Panel 5",75.6%
same,% I (percent inhibition),"anti-HBc [1]; 10 ul 0.5M MBS, sample OBI 76",5.8%
same,% I (percent inhibition),"anti-HBc [1]; 10 ul 0.5M MBS, sample OBI 76 spiked with Panel 5",74.2%
same,% I (percent inhibition),"anti-HBc [1]; 10 ul 0.5M MBS, sample OBI 91",10.8%
same,% I (percent inhibition),"anti-HBc [1]; 10 ul 0.5M MBS, sample OBI 91 spiked with Panel 5",75.0%
same,% I (percent inhibition),"anti-HBc [1]; 10 ul 0.5M MBS, sample OBI 177",31.5%
same,% I (percent inhibition),"anti-HBc [1]; 10 ul 0.5M MBS, sample OBI 177 spiked with Panel 5",74.4%
same,% I (percent inhibition),"anti-HBc [1]; 10 ul 0.5M MBS, sample OBI 189",2.5%
same,% I (percent inhibition),"anti-HBc [1]; 10 ul 0.5M MBS, sample OBI 189 spiked with Panel 5",75.1%
same,effect on anti-HBc positive samples,anti-HBc [1]; Panel 7 and samples spiked with Panel 5,not affected
same,absolute values for negative and positive controls,anti-HBc [1]; Table I,not affected significantly
same,inhibition in the Corab assay,anti-HBc [1]; Sample 9,5.2%
same,inhibition in the Corab assay,anti-HBc [1]; Sample 209,86.3%
N[C@@H](CS)C(=O)O [cysteine],COUNTS,"anti-HBc [2]; 200 mM cysteine solution (EDTA, DTT), Negative Control",23992 COUNTS
same,% I (percent inhibition),"anti-HBc [2]; 200 mM cysteine solution (EDTA, DTT), Panel 7",76.3%
same,% I (percent inhibition),"anti-HBc [2]; 200 mM cysteine solution (EDTA, DTT), Plasma S9",3.2%
same,% I (percent inhibition),"anti-HBc [2]; 200 mM cysteine solution (EDTA, DTT), Plasma S14",3.0%
same,COUNTS,"anti-HBc [2]; 200 mM cysteine solution (EDTA, DTT), Positive Control",5000 COUNTS
same,<cpm>,"anti-HBc [2]; 10 ul 0.75M cysteine fresh, NC",20856 cpm
same,% I (percent inhibition),"anti-HBc [2]; 10 ul 0.75M cysteine fresh, NC spiked with Panel 5",80.8%
same,<cpm>,"anti-HBc [2]; 10 ul 0.75M cysteine fresh, PC",4035 cpm
same,% I (percent inhibition),"anti-HBc [2]; 10 ul 0.75M cysteine fresh, Panel 7",80.7%
same,average percent inhibition,"anti-HBc [2]; 10 ul 0.75M cysteine fresh, plasma samples spiked with Panel 5",71.5%
same,% I (percent inhibition),"anti-HBc [2]; 10 ul 0.75M cysteine fresh, sample 52",6.2%
same,% I (percent inhibition),"anti-HBc [2]; 10 ul 0.75M cysteine fresh, sample 52 spiked with Panel 5",67.9%
same,% I (percent inhibition),"anti-HBc [2]; 10 ul 0.75M cysteine fresh, sample 71",36.0%
same,% I (percent inhibition),"anti-HBc [2]; 10 ul 0.75M cysteine fresh, sample 71 spiked with Panel 5",69.9%
same,% I (percent inhibition),"anti-HBc [2]; 10 ul 0.75M cysteine fresh, sample 166",54.0%
same,% I (percent inhibition),"anti-HBc [2]; 10 ul 0.75M cysteine fresh, sample 166 spiked with Panel 5",80.8%
same,% I (percent inhibition),"anti-HBc [2]; 10 ul 0.75M cysteine fresh, sample 189",11.1%
same,% I (percent inhibition),"anti-HBc [2]; 10 ul 0.75M cysteine fresh, sample 189 spiked with Panel 5",70.5%
same,% I (percent inhibition),"anti-HBc [2]; 10 ul 0.75M cysteine fresh, sample 277",-2.5%
same,% I (percent inhibition),"anti-HBc [2]; 10 ul 0.75M cysteine fresh, sample 277 spiked with Panel 5",68.6%
same,average percent inhibition,"anti-HBc [2]; 10 ul 0.75M cysteine fresh, unspiked plasma samples",21.0%
same,mean counts,"anti-HBc [2]; Example 5, + cysteine reagent, Negative control",24494 counts
same,% I (percent inhibition),"anti-HBc [2]; Example 5, + cysteine reagent, Panel 5",86.7%
same,% I (percent inhibition),"anti-HBc [2]; Example 5, + cysteine reagent, Panel 6",85.3%
same,% I (percent inhibition),"anti-HBc [2]; Example 5, + cysteine reagent, Panel 7",77.2%
same,% I (percent inhibition),"anti-HBc [2]; Example 5, + cysteine reagent, Panel 8",53.5%
same,% I (percent inhibition),"anti-HBc [2]; Example 5, + cysteine reagent, Panel 9",21.0%
same,mean counts,"anti-HBc [2]; Example 5, + cysteine reagent, Positive control",5678 counts
same,activity (interfering factor) in Group II type samples,"anti-HBc [2]; S9 and S14, presence of cysteine",eliminated
same,signal loss in the negative control,anti-HBc [2]; presence of cysteine,10-20%
same,single inhibitory peak near the void volume,"anti-HBc [3]; Sample 9, presence of cysteine",not detected
same,second and major inhibitory peak (co-eluted with IgG),"anti-HBc [3]; Sample 209, cysteine treatment",unaffected
same,first inhibitory peak,"anti-HBc [3]; Sample 209, presence of cysteine",not detected
